Assay results reported in ChEMBL document CHEMBL1148908, “Biscoumarin derivatives from Edgeworthia gardneri that inhibit the lyase activity of DNA polymerase beta” (J Nat Prod, 2004).
Activity calls are given as the source filed them. No cut-off for these calls is given here.

Columns and labels:
[1] = biological target: DNA polymerase beta (Rattus norvegicus) (UniProt P06766); assay: Inhibition of rat DNA polymerase beta-mediated DNA polymerization up to 100 ug/mL after 1 hr
[2] = biological target: DNA polymerase beta (Rattus norvegicus, UniProt P06766); assay: Inhibition of lyase activity of rat DNA polymerase beta after 30 mins
[3] = tested on: A549; assay: Cytotoxicity against human A549 cells at 6 uM after 48 hrs in presence of 0.5 uM blenoxane; assay type: functional
[4] = tested on: A549; assay: Cytotoxicity against human A549 cells at 6 uM after 48 hrs; assay type: functional; conditions: A549, 48 h
[5] = tested on: A549; assay: Cytotoxicity against human A549 cells at 0.5 uM after 48 hrs; assay type: functional, cell-based

Compound	Activity [1]	IC50 [2] [µM]	inhibition (INH) [3] [%]	inhibition at 6 µM [4] [%]	inhibition [5] [%]
O=c1ccc2ccc(Oc3cc4cc(O)c(O)cc4oc3=O)cc2o1 [EDGEWORTHIN]	inactive	94.8	–	–	–
O=c1ccc2ccc(Oc3cc4ccc(O)cc4oc3=O)cc2o1 [EDGEWORIN]	inactive	–	50.7	1.6	–
BLEOMYCIN SULFATE	–	–	–	–	35.5
COc1cc2cc(Oc3ccc4ccc(=O)oc4c3)c(=O)oc2cc1O [DAPHNORETIN]	inactive	122	–	–	–
